# Measured values taken from patent publication US20260131009A1, “BIFUNCTIONAL PI3K-ALPHA INHIBITORS AND USES THEREOF” (Relay Therapeutics, Inc., priority 2021, published 2026).
# Target: PI3Kα (Homo sapiens, UniProt P42336, H1047R)
# Test: ADP-Glo IC50 assay
# Format: biochemical
# Conditions: class symbols; key not given
# PI3Kα, sequence (P42336 whole entry H1047R): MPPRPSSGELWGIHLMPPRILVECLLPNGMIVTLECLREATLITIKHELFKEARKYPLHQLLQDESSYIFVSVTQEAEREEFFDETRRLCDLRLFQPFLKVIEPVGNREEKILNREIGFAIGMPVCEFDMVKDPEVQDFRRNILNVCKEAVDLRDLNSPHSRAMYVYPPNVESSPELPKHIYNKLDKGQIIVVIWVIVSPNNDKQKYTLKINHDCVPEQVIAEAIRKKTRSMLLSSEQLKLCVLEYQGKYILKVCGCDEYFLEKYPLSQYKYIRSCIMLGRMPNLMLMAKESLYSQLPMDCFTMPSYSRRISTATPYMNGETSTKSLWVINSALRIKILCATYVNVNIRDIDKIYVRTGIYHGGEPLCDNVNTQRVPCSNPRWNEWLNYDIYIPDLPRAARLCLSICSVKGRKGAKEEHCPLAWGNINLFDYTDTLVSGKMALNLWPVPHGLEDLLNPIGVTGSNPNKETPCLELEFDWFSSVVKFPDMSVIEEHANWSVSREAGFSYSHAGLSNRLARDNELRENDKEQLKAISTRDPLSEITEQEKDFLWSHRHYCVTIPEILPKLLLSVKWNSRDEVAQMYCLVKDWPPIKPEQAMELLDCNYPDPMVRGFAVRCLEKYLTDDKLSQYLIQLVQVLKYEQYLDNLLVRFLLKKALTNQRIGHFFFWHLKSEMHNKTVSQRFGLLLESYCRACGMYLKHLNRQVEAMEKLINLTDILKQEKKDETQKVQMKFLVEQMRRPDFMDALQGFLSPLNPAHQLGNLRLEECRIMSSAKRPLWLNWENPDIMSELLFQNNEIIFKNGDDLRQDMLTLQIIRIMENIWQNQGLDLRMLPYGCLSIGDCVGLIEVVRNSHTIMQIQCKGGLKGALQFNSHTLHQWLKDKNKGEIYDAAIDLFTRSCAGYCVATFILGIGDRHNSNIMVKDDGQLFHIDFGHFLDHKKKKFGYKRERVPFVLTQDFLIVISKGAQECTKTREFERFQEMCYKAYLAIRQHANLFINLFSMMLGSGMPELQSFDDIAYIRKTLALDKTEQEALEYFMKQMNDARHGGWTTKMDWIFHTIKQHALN
# PI3Kα, sequence (P27986 whole entry partner): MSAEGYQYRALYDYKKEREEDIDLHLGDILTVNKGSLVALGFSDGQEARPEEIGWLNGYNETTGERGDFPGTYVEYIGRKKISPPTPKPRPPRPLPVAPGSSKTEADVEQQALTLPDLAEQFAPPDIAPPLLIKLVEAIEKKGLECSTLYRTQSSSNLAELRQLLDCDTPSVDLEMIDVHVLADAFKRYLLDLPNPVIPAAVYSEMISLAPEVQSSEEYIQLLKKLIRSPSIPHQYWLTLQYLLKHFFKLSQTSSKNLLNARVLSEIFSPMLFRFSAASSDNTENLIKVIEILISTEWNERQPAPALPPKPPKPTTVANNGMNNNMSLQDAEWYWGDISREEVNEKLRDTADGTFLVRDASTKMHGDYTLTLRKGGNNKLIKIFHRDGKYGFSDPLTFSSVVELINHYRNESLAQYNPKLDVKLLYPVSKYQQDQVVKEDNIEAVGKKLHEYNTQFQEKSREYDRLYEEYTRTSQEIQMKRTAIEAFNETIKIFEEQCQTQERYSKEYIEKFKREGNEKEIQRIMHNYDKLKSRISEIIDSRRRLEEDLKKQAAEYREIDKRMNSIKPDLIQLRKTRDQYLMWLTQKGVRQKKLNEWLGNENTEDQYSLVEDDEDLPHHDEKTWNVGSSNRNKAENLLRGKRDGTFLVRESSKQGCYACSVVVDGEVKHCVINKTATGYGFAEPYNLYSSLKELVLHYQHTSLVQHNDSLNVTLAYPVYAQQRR
row,Compound,IC50 [nM]
1,Cc1ccccc1Nc1ncc(C(=O)NCCOCCOCCOCCOCCC(=O)N[C@H](C(=O)N2C[C@H](O)C[C@H]2C(=O)NCc2ccc(-c3scnc3C)cc2)C(C)(C)C)cc1NC(=O)c1csc2ccccc12 [Example I-14],500 to 1000
2,Cc1ccccc1Nc1ncc(C(=O)NCCCCCCC(=O)N[C@H](C(=O)N2C[C@H](O)C[C@H]2C(=O)NCc2ccc(-c3scnc3C)cc2)C(C)(C)C)cc1NC(=O)c1csc2ccccc12 [Example I-15],100 to 500
3,Cc1ccccc1Nc1ncc(C(=O)NCCCCCCCCNc2ccc3c(c2)C(=O)N(C2CCC(=O)NC2=O)C3=O)cc1NC(=O)c1csc2ccccc12 (stereo not drawn) [Example I-16],100 to 500
4,Cc1ccccc1Nc1ncc(C(=O)NCCCCCCCC(=O)N[C@H](C(=O)N2C[C@H](O)C[C@H]2C(=O)NCc2ccc(-c3scnc3C)cc2)C(C)(C)C)cc1NC(=O)c1csc2ccccc12 [Example I-18],100 to 500
5,Cc1ccccc1Nc1ncc(C(=O)NCCCCCCC(=O)NCc2ccc3c(c2)CN(C2CCC(=O)NC2=O)C3=O)cc1NC(=O)c1csc2ccccc12 (stereo not drawn) [Example I-19],100 to 500
6,Cc1ccccc1Nc1ncc(C(=O)NCCCCCCCCNC(=O)c2ccc3c(c2)CN(C2CCC(=O)NC2=O)C3=O)cc1NC(=O)c1csc2ccccc12 (stereo not drawn) [Example I-21],100 to 500
7,Cc1ccccc1Nc1ncc(C(=O)NCCCCCCC(=O)N[C@H](C(=O)N2C[C@H](O)C[C@H]2C(=O)N[C@@H](C)c2ccc(-c3scnc3C)cc2)C(C)(C)C)cc1NC(=O)c1csc2ccccc12 [Example I-23],100 to 500
8,Cc1ccccc1Nc1ncc(C(=O)NCCOCCOCCOCCC(=O)NCc2ccc3c(c2)CN(C2CCC(=O)NC2=O)C3=O)cc1NC(=O)c1csc2ccccc12 (stereo not drawn) [Example I-26],1000 to 10000
9,COC(=O)CCCCCCCCCNC(=O)c1cnc(Nc2ccccc2C)c(NC(=O)c2csc3ccccc23)c1 [Example I-27],500 to 1000
10,Cc1ccccc1Nc1ncc(C(=O)NCCOCCOCCC(=O)NCc2ccc3c(c2)CN(C2CCC(=O)NC2=O)C3=O)cc1NC(=O)c1csc2ccccc12 (stereo not drawn) [Example I-30],1000 to 10000
11,Cc1ccccc1Nc1ncc(C(=O)NCCOCCOCCOCCOCCOCCOCCC(=O)N[C@H](C(=O)N2C[C@H](O)C[C@H]2C(=O)NCc2ccc(-c3scnc3C)cc2)C(C)(C)C)cc1NC(=O)c1csc2ccccc12 [Example I-32],1000 to 10000
12,Cc1ccccc1Nc1ncc(C(=O)NCCOCCOCCOCCOCCOCCOCCC(=O)N[C@H](C(=O)N2C[C@H](O)C[C@H]2C(=O)N[C@@H](C)c2ccc(-c3scnc3C)cc2)C(C)(C)C)cc1NC(=O)c1csc2ccccc12 [Example I-33],1000 to 10000
13,O=C1CCC(N2Cc3cc(C(=O)NCCCCCCCCCNC(=O)c4cnc(Nc5cc(F)ccc5Cl)c(NC(=O)c5csc6ccccc56)c4)ccc3C2=O)C(=O)N1 (stereo not drawn) [Example I-34],500 to 1000
14,Cc1ccccc1Nc1ncc(C(=O)NCCOCCOCCOCCC(=O)N[C@H](C(=O)N2C[C@H](O)C[C@H]2C(=O)NCc2ccc(-c3scnc3C)cc2)C(C)(C)C)cc1NC(=O)c1csc2ccccc12 [Example I-35],1000 to 10000
15,Cc1ccccc1Nc1ncc(C(=O)NCCOCCOCCC(=O)N[C@H](C(=O)N2C[C@H](O)C[C@H]2C(=O)NCc2ccc(-c3scnc3C)cc2)C(C)(C)C)cc1NC(=O)c1csc2ccccc12 [Example I-37],1000 to 10000
16,Cc1ccccc1Nc1ncc(C(=O)NCCCCCC(=O)N[C@H](C(=O)N2C[C@H](O)C[C@H]2C(=O)NCc2ccc(-c3scnc3C)cc2)C(C)(C)C)cc1NC(=O)c1csc2ccccc12 [Example I-38],100 to 500
17,Cc1ccccc1Nc1ncc(C(=O)NCCOCCOCCC(=O)N[C@H](C(=O)N2C[C@H](O)C[C@H]2C(=O)N[C@@H](C)c2ccc(-c3scnc3C)cc2)C(C)(C)C)cc1NC(=O)c1csc2ccccc12 [Example I-40],1000 to 10000
18,O=C(CCCCCCCNC(=O)c1cnc(Nc2cc(F)ccc2Cl)c(NC(=O)c2csc3ccccc23)c1)NCc1ccc2c(c1)CN(C1CCC(=O)NC1=O)C2=O (stereo not drawn) [Example I-41],100 to 500
19,Cc1ccccc1Nc1ncc(C(=O)NCCCCCCCNc2cccc3c2C(=O)N(C2CCC(=O)NC2=O)C3=O)cc1NC(=O)c1csc2ccccc12 (stereo not drawn) [Example I-42],100 to 500
20,Cc1ccccc1Nc1ncc(C(=O)NCCCCC(=O)N[C@H](C(=O)N2C[C@H](O)C[C@H]2C(=O)NCc2ccc(-c3scnc3C)cc2)C(C)(C)C)cc1NC(=O)c1csc2ccccc12 [Example I-43],500 to 1000
21,Cc1ccccc1Nc1ncc(C(=O)NCCCC#Cc2ccc3c(c2)CN(C2CCC(=O)NC2=O)C3=O)cc1NC(=O)c1csc2ccccc12 (stereo not drawn) [Example I-44],100 to 500
22,Cc1ncsc1-c1ccc(CNC(=O)[C@@H]2C[C@@H](O)CN2C(=O)[C@@H](NC(=O)CCCCCCCCCNC(=O)c2cnc(Nc3cc(F)ccc3Cl)c(NC(=O)c3csc4ccccc34)c2)C(C)(C)C)cc1 [Example I-45],100 to 500
23,Cc1ccccc1Nc1ncc(C(=O)NCCOCCOCCOCCOCCC(=O)NCc2ccc3c(c2)CN(C2CCC(=O)NC2=O)C3=O)cc1NC(=O)c1csc2ccccc12 (stereo not drawn) [Example I-47],1000 to 10000
24,Cc1ccccc1Nc1ncc(C(=O)NCCCC(=O)N[C@H](C(=O)N2C[C@H](O)C[C@H]2C(=O)NCc2ccc(-c3scnc3C)cc2)C(C)(C)C)cc1NC(=O)c1csc2ccccc12 [Example I-48],500 to 1000

row,Compound,IC50 [nM]
1,Cc1ccccc1Nc1ncc(C(=O)NCCCCNc2cccc3c2C(=O)N(C2CCC(=O)NC2=O)C3=O)cc1NC(=O)c1csc2ccccc12 (stereo not drawn) [Example I-49],100 to 500
2,Cc1ccccc1Nc1ncc(C(=O)NCCCNc2cccc3c2C(=O)N(C2CCC(=O)NC2=O)C3=O)cc1NC(=O)c1csc2ccccc12 (stereo not drawn) [Example I-51],100 to 500
3,Cc1ccccc1Nc1ncc(C(=O)NCCOCCOCCOCCOCCOCCOCCC(=O)NCc2ccc3c(c2)CN(C2CCC(=O)NC2=O)C3=O)cc1NC(=O)c1csc2ccccc12 (stereo not drawn) [Example I-52],10000 to 100000
4,Cc1ccccc1Nc1ncc(C(=O)Nc2ccc(N3CCN(c4ccc5c(c4)C(=O)N(C4CCC(=O)NC4=O)C5=O)CC3)cc2)cc1NC(=O)c1csc2ccccc12 (stereo not drawn) [Example I-55],100 to 500
5,Cc1ccccc1Nc1ncc(C(=O)NCCCNc2ccc3c(c2)C(=O)N(C2CCC(=O)NC2=O)C3=O)cc1NC(=O)c1csc2ccccc12 (stereo not drawn) [Example I-56],< 100
6,Cc1ccccc1Nc1ncc(C(=O)NCCCC(=O)N[C@H](C(=O)N2C[C@H](O)C[C@H]2C(=O)N[C@@H](C)c2ccc(-c3scnc3C)cc2)C(C)(C)C)cc1NC(=O)c1csc2ccccc12 [Example I-57],500 to 1000
7,Cc1ccccc1Nc1ncc(C(=O)NCCCCCC(=O)NCc2ccc3c(c2)C(=O)N(C2CCC(=O)NC2=O)C3)cc1NC(=O)c1csc2ccccc12 (stereo not drawn) [Example I-58],100 to 500
8,Cc1ccccc1Nc1ncc(C(=O)NCCCCCCNc2cccc3c2C(=O)N(C2CCC(=O)NC2=O)C3=O)cc1NC(=O)c1csc2ccccc12 (stereo not drawn) [Example I-59],500 to 1000
9,Cc1ccccc1Nc1ncc(C(=O)NCCCNC(=O)c2ccc3c(c2)CN(C2CCC(=O)NC2=O)C3=O)cc1NC(=O)c1csc2ccccc12 (stereo not drawn) [Example I-61],100 to 500
10,O=C1CCC(N2C(=O)c3ccc(NCCCCCNC(=O)c4cnc(Nc5cc(F)ccc5Cl)c(NC(=O)c5csc6ccccc56)c4)cc3C2=O)C(=O)N1 (stereo not drawn) [Example I-63],100 to 500
11,Cc1ccccc1Nc1ncc(C(=O)NCCc2ccc(Nc3ccc4c(c3)C(=O)N(C3CCC(=O)NC3=O)C4=O)cc2)cc1NC(=O)c1csc2ccccc12 (stereo not drawn) [Example I-64],100 to 500
12,Cc1ccccc1Nc1ncc(C(=O)NCCCCC(=O)N[C@H](C(=O)N2C[C@H](O)C[C@H]2C(=O)N[C@@H](C)c2ccc(-c3scnc3C)cc2)C(C)(C)C)cc1NC(=O)c1csc2ccccc12 [Example I-65],500 to 1000
13,O=C1CCC(N2Cc3cc(C(=O)NCCCCCCCNC(=O)c4cnc(Nc5cc(F)ccc5Cl)c(NC(=O)c5csc6ccccc56)c4)ccc3C2=O)C(=O)N1 (stereo not drawn) [Example I-66],100 to 500
14,NC(=O)CCCCCCCCCNC(=O)c1cnc(Nc2cc(F)ccc2Cl)c(NC(=O)c2csc3ccccc23)c1 [Example I-68],100 to 500
15,O=C1CCC(N2C(=O)c3ccc(NCCCCCCCNC(=O)c4cnc(Nc5cc(F)ccc5Cl)c(NC(=O)c5csc6ccccc56)c4)cc3C2=O)C(=O)N1 (stereo not drawn) [Example I-69],100 to 500
16,O=C1CCC(N2Cc3cc(C(=O)NCCCCCCCCCNC(=O)c4cc(NC(=O)c5cc(F)cc(C(F)(F)F)c5)c5c(c4)C(=O)N[C@@H]5c4cc(F)ccc4Cl)ccc3C2=O)C(=O)N1 (stereo partly drawn) [Example I-70],1000 to 10000
17,Cc1ncsc1-c1ccc(CNC(=O)[C@@H]2C[C@@H](O)CN2C(=O)[C@@H](NC(=O)CCCCCCCCCNC(=O)c2cc(NC(=O)c3cc(F)cc(C(F)(F)F)c3)c3c(c2)C(=O)N[C@H]3c2cc(F)ccc2Cl)C(C)(C)C)cc1 [Example I-71],500 to 1000
18,Cc1ncsc1-c1ccc(CNC(=O)[C@@H]2C[C@@H](O)CN2C(=O)[C@@H](NC(=O)CCCCCCCCCNC(=O)c2cc(NC(=O)c3cc(F)cc(C(F)(F)F)c3)c3c(c2)C(=O)N[C@@H]3c2cc(F)ccc2Cl)C(C)(C)C)cc1 [Example I-73],< 100
19,Cc1ccccc1Nc1ncc(C(=O)NCCCC[C@H](N)C(=O)N[C@H](C(=O)N2C[C@H](O)C[C@H]2C(=O)NCc2ccc(-c3scnc3C)cc2)C(C)(C)C)cc1NC(=O)c1csc2ccccc12 [Example I-74],1000 to 10000
20,O=C1CCC(N2C(=O)c3ccc(NCCCCCNC(=O)c4cc(NC(=O)c5cc(F)cc(C(F)(F)F)c5)c5c(c4)C(=O)N[C@@H]5c4cc(F)ccc4Cl)cc3C2=O)C(=O)N1 (stereo partly drawn) [Example I-75],500 to 1000
21,O=C(O)CCCCCCCCCNC(=O)c1cc(NC(=O)c2cc(F)cc(C(F)(F)F)c2)c2c(c1)C(=O)N[C@@H]2c1cc(F)ccc1Cl [Example I-76],< 100
22,O=C1CCC(N2Cc3cc(C(=O)NCCCCCCCNC(=O)c4cc(NC(=O)c5cc(F)cc(C(F)(F)F)c5)c5c(c4)C(=O)N[C@H]5c4cc(F)ccc4Cl)ccc3C2=O)C(=O)N1 (stereo partly drawn) [Example I-77],< 100
23,NC(=O)CCCCCCCCCNC(=O)c1cc(NC(=O)c2cc(F)cc(C(F)(F)F)c2)c2c(c1)C(=O)N[C@H]2c1cc(F)ccc1Cl [Example I-79],1000 to 10000
24,O=C1CCC(N2Cc3cc(C(=O)NCCCCCCCNC(=O)c4cc(NC(=O)c5cc(F)cc(C(F)(F)F)c5)c5c(c4)C(=O)N[C@@H]5c4cc(F)ccc4Cl)ccc3C2=O)C(=O)N1 (stereo partly drawn) [Example I-80],100 to 500
